Results on 20 compounds are retold here after ChEMBL document CHEMBL1177697, “Evolution of poly(ADP-ribose) polymerase-1 (PARP-1) inhibitors. From concept to clinic” (J Med Chem, 2010).

One series deals with Liver microsomes. Description: Intrinsic clearance in human liver microsome. Type of series: ADME.
Series [1] addresses T1, Poly [ADP-ribose] polymerase 1 (Homo sapiens, UniProt P09874). Description: Inhibition of PARP1 at 9.2 uM. Details: scale not given: the % may be the effect or the level left.
The target of series [2] is T1, Poly [ADP-ribose] polymerase 1.
Series [3] in a line: Half life in human patient at 2.8 mg/kg, iv. The class given is ADME, organism-based. Further details: dose 2.8 mg/kg, route intravenous. As to conditions: in vivo.
Series [4] in a line: Half life in human patient at 200 to 800 mg, iv. As to conditions: in vivo. The class given is ADME, organism-based.
Another series deals with L1210. Description: Cytotoxicity against mouse L1210 cells. The class given is functional.
Another series concerns LoVo. Description: Potentiation of TMZ-induced antiproliferation against human LoVo cells at 0.4 uM. The class given is functional.
Series [5] concerns Rattus norvegicus. Description: Cardioprotective effect in rat ischemia/reperfusion-induced myocardial infarction model assessed as reduction in infarct size at 3 mg/kg/hr, iv administered prior to reperfusion measured after 4 hrs. Type of series: functional, Myocardium. Details: scale not given: the % may be the effect or the level left.
The test system of series [6] is Rattus norvegicus. Description: Cardioprotective effect in rat ischemia/reperfusion-induced myocardial infarction model assessed as reduction in infarct size at 3 mg/kg/hr, iv administered prior to reperfusion measured after 2 hrs. Type of series: functional, Myocardium. Further details: scale not given: the % may be the effect or the level left.
Series [7] has as its system Rattus norvegicus. Description: Cardioprotective effect in rat ischemia/reperfusion-induced myocardial infarction model assessed as reduction in infarct size at 3 mg/kg/hr, iv administered prior to reperfusion. Type of series: functional, Myocardium. Further details: scale not given: the % may be the effect or the level left.
Another series can be described thus: in vivo. To be noted: rat, brain/plasma, 10 mg/kg.
Series [8] deals with Poly [ADP-ribose] polymerase 2 (Homo sapiens, UniProt Q9UGN5). Description: Inhibition of PARP2.
Series [9] in a line: Ratio of drug level in brain to plasma in rat. The class given is ADME.
The test system of series [10] is Rattus norvegicus. Description: Neuroprotective effect in rat transient MCAO model assessed as reduction in infarct volume at 10 mg/kg/hr, iv administered prior to reperfusion. Further details: scale not given: the % may be the effect or the level left.
In series [11] the test system is Rattus norvegicus. Description: Cardioprotective effect in rat ischemia/reperfusion-induced myocardial infarction model assessed as reduction in infarct size at 20 mg/kg, iv administered 10 mins prior to reperfusion. Details: scale not given: the % may be the effect or the level left.
A short description of series [12]: Selectivity for […].
The test system of series [13] is Rattus norvegicus. Description: Cardioprotective effect in rat cardiac ischemia model assessed as reduction in infarct size at 80 mg/kg, iv administered prior to reperfusion. The class given is functional, Heart. Details: scale not given: the % may be the effect or the level left.
In series [14] the test system is Rattus norvegicus. Description: Neuroprotective effect in rat transient MCAO model assessed as reduction in infarct volume at 40 mg/kg, iv administered prior to reperfusion. Further details: scale not given: the % may be the effect or the level left.
Series [15] can be described thus: Biodistribution in human patient urine. As to conditions: in vivo. The class given is ADME, organism-based.
Series [16] is described as follows: Half life in iv dosed human patient. Type of series: ADME, organism-based. As to conditions: in vivo.
The next series concerns Homo sapiens. Description: Toxicity in iv infused human patients assessed as maximum tolerated dose. Type of series: organism-based. As to conditions: in vivo.

T1 sequence (P09874 whole entry): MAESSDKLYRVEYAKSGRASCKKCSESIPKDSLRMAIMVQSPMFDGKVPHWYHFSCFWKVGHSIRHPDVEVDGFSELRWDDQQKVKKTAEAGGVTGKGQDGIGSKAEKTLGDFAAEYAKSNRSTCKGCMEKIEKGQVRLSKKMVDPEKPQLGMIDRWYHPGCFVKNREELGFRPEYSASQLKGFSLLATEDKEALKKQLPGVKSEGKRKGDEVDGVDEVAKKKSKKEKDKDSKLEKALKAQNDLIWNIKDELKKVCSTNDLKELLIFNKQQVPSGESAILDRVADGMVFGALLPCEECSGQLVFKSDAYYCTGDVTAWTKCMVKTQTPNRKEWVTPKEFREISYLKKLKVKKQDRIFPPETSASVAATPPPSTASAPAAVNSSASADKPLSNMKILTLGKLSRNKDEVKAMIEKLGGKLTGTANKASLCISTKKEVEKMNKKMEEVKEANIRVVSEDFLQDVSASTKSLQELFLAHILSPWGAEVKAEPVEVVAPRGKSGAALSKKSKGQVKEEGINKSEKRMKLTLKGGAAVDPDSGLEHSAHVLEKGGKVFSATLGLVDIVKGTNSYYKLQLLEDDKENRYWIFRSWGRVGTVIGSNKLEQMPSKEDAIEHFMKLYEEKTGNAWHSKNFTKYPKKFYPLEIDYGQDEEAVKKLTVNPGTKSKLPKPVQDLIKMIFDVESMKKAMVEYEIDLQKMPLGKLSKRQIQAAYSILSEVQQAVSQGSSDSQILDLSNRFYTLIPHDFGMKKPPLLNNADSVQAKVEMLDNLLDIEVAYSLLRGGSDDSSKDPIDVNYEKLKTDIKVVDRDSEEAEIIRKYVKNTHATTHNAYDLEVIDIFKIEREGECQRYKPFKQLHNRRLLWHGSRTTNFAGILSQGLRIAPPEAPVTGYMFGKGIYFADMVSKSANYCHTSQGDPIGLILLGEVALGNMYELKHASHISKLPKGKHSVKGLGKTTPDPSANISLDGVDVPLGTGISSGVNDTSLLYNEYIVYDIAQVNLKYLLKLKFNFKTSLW
Poly [ADP-ribose] polymerase 2, sequence (Q9UGN5 whole entry): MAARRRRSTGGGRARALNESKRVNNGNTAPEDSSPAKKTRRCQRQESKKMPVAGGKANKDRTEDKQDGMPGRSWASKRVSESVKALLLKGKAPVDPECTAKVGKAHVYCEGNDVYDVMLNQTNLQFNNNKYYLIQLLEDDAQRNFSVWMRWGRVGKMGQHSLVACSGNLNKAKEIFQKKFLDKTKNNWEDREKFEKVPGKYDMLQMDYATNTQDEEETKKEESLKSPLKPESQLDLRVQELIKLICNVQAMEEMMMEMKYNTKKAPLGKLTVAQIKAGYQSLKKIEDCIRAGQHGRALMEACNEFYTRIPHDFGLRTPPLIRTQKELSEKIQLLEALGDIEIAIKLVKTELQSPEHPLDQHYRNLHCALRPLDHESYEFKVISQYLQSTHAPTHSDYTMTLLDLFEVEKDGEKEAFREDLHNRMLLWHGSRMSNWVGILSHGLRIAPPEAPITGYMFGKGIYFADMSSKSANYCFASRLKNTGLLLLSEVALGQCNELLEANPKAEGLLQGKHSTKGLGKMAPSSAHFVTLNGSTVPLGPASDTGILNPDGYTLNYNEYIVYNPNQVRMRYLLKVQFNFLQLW
Description for in vivo: Ratio of drug level in brain to plasma in rat at 10 mg/kg/hr after 6 hrs

In the series with Liver microsomes, `O=C1CCC(=O)N1c1cc(Cc2n[nH]c(=O)c3ccccc23)ccc1F` came in with a CL of less than 1 mL/min/g.
With `NC(=O)c1cccc(C2CO2)c1` (centres undefined), the Activity in series [1] is 88%. Moreover, in series [2], inhibition was half-maximal at 1 µM (IC50).
In series [2], `O=c1[nH]ccc2c(Br)cccc12` registered an IC50 of 0.27 µM.
For `NC(=O)c1ccc(I)c([N+](=O)[O-])c1` [INIPARIB], in series [3], the half-life is 4 min.
Take `OC[C@H]1O[C@@H](n2cnc3c(O)ncnc32)[C@H](O)[C@@H]1O` [INOSINE]: the half-life in series [4] is 7.5 h.
In [2], `NC(=O)c1cccc2[nH]cnc12` came in with an IC50 of 0.24 µM.
Still for that read-out and setting: with `O=c1[nH]cc(-c2ccccc2)c2ccccc12` the figure was 0.89 µM.
The compound `CCc1cc2cc(C(CCN3CCCCC3)Cc3ccc4c(c3)OCCO4)ccc2[nH]c1=O` (centres undefined) had an IC50 in series [2] of 0.0092 µM.
`Cc1nc2c(O)cccc2c(=O)[nH]1` had an Activity in the series on L1210 of 90%.
Take `CN(C)Cc1ccc(-c2nc3cccc4c3n2CCNC4=O)cc1`: the PF50 with LoVo is on record as 5.5.
Consider `CN(C)Cc1ccc(-c2c[nH]c(=O)c3cccc(O)c23)cc1`, for which the figures for the Activity in the series on Rattus norvegicus [5], in the series on Rattus norvegicus [6] and in the series with Rattus norvegicus [7] were 47%, 50% and 57%, respectively. In the series “in vivo”, this compound registered a Kp at 6 h of 0.8.
In turn, `O=c1[nH]cnc2ccccc12` [QUINAZOLINONE] returned an IC50 in series [2] of 15.8 µM.
In [8], `O=c1[nH]c(CCCN2CC=C(c3ccc(F)cc3)CC2)nc2c(Cl)cccc12` displayed an IC50 of 0.5 µM.
Take `Cc1nc2cccc(Cl)c2c(=O)[nH]1`: the concentration ratio (Kp) in series [9] is 0.82.
Regarding `Nc1ncnc2c1ncn2[C@@H]1O[C@H](C(=O)N2CCN(CC(=O)Nc3cccc4c3CNC4=O)CC2)[C@@H](O)[C@H]1O`, the Activity in the series with Rattus norvegicus [10] stood at 57%; in the series on Rattus norvegicus [11], 35%.
`N#Cc1ccc(-c2cnc3cccc(C(N)=O)c3n2)cc1` registered an IC50 in [8] of 0.008 µM. In addition, the Selectivity ratio in series [12] was found to be 10.
Consider `CN1CCN(c2ccc3nc(O)c4ccccc4c3n2)CC1`, for which the Activity was found to be 25% in the series with Rattus norvegicus [13] and 44% in the series on Rattus norvegicus [14].
Regarding `CN(C)Cc1ccc(-c2cc3cccc4c3n2CCNC4=O)cc1`, the PF50 in the series on LoVo is on record as 3.8.
For `O=C1NCCc2c(-c3ccc(CN4CCCC4)cc3)[nH]c3cccc1c23`, the PF50 in the series with LoVo is reported as 7.8.
Turning to `CNCc1ccc(-c2[nH]c3cc(F)cc4c3c2CCNC4=O)cc1` [RUCAPARIB], the Drug uptake in [15] is reported as 11%. The half-life in [16] is 9.5 h. Besides, in the series on Homo sapiens, the MTD is on record as 200 mg/m2.
